Laboratory results taken from patent US20040235939A1, “Synthesis of peloruside a and analogs thereof for use as antitumor agents” (priority 2003, published 2004).
Read-outs that look alike come from different tables or passages of the source.

Tests used:
HeLa cells = assay: Cell viability of HeLa cells treated with Peloruside analogs; assay type: cell-based, human; conditions: 10 to 1000 nM
Description: (§1) Cells were treated with medium, DMSO, LX3111 or LX3136 at a final concentration of 10, 50, 100, 200, 300, 400, 500, 600, 800 or 1000 nM. Cell viability was measured by counting surviving cells or measuring luminescence at 48 hours after drug treatment using the Cell Titer-Glo Luminescent Cell Viability Assay (Promega).

SK-MEL-5 cells = assay: Cell viability of SK-MEL-5 cells treated with Peloruside analogs; assay type: cell-based, human; conditions: SK-MEL-5, 10 to 1000 nM
Description: as §1

HeLa = assay: Growth of cultured human tumor cell line HeLa; assay type: cell-based; conditions: up to 10 μM
[1] = test system: Tubulin, purified from bovine brains; assay: Tubulin polymerization in vitro; assay type: biochemical
Description: Tubulin, purified from bovine brains and prepared in PEM-buffer (80 mM PIPES, 0.5 mM MgCl2, 1 mM EGTA, pH 6.9) was thawed under vacuum on ice. Tubulin was incubated at 37° C. until almost melted and resuspended to a final concentration of 2 mg/ml and placed on ice. Peloruside A or Taxol® was added into transparent 96-well plates (Coming Incorp. Costar) and placed on ice. GTP (Sigma) was added to a final concentration of 1 mM. The 96 well plate was warmed to 37° C. and 120 μl of tubulin solution was added into each well. The absorbance of the reaction at 340 nm over time (each 40-50 sec.) was measured on the spectrophotometer TECAN SPECTRAFluor Plus. Peloruside A or Taxol® was added to the tubulin at a final concentration of 5 or 10 μM.

SK-MEL-5 = assay: Growth of cultured human tumor cell line SK-MEL-5; assay type: cell-based; conditions: SK-MEL-5, up to 10 μM

Compound	inhibition of cell growth (antimitotic activity) (HeLa cells)	inhibition of cell growth (antimitotic activity) (SK-MEL-5 cells)	effect on the growth of cultured human tumor cell line (HeLa)	effect on the growth of cultured human tumor cell line (HeLa; listed as (−)-Peloruside A)	polymerization of tubulin dimers into microtubule polymers (microtubule-stabilizing activity) [1]	polymerization of tubulin dimers into microtubule polymers (microtubule-stabilizing activity) ([1]; listed as (−)-Peloruside A)	effect on the growth of cultured human tumor cell line (SK-MEL-5)	effect on the growth of cultured human tumor cell line (SK-MEL-5; listed as (−)-Peloruside A)
CC[C@H](/C=C(/C)C1C[C@H](OC)CC(O)C(C)(C)C2(O)OC(C[C@@H](OC)C2O)C[C@@H](OC)[C@H](O)C(=O)O1)CO (stereo partly shown) [LX3111]	potent antimitotic activity	potent antimitotic activity						
CC[C@H](/C=C(/C)C1C[C@@H](OC)CC(O)C(C)(C)C2(O)OC(C[C@@H](OC)C2O)C[C@@H](OC)[C@H](OCOC)C(=O)O1)CO (stereo partly shown) [LX3136]	potent antimitotic activity	potent antimitotic activity						
(−)-Peloruside A [Compound 40]			no effect on the growth	inactive	did not polymerize tubulin dimers into microtubule polymers	biologically inactive	no effect on the growth	inactive
